Data from patent US20230406865A1, “CRYSTAL FORM OF FREE BASE OF INHIBITOR CONTAINING BICYCLIC RING DERIVATIVE AND PREPARATION METHOD AND APPLICATION OF CRYSTAL FORM” (SHANGHAI HANSOH BIOMEDICAL CO., LTD., priority 2020, published 2023).
pIC50: −log10 of the molar value.

Legend:
[1] = tested on: TT cells (MTC, RET C634W); test: Inhibition of proliferation of TT cells (CellTiter-Glo, 72 h); format: cell-based; conditions: Homo sapiens
Procedure: TT cells were purchased from the cell bank of the Chinese Academy of Sciences.
When TT cells were cultured to the appropriate fusion level, TT cells were collected, and the cells were adjusted to the appropriate cell concentration using complete medium, and the cell suspension was spread in a 96-well plate, 90 μL per well, and placed to the wall of a 37° C., 5% CO2 incubator overnight; and compound solutions of different concentrations were prepared using DMSO and culture medium; and a solvent control was set, the compound solution was added to a 96-well plate, 10 μL per well, and placed to the wall of a 37° C., 5% CO2 incubator for 72 hours; CellTiter-Glo solution was added thereto and the mixture was mixed well by shaking, incubated for 10 minutes in the dark, and read by BioTek Synergy H1 microplate reader.
The IC50 values were obtained by using luminescence signal values to calculate the inhibition rate, the concentration and the inhibition rate were fitted to a nonlinear regression curve using Graphpad Prism software.

Ba/F3 KIF5B-RET cells = biological target: T1, Ba/F3 KIF5B-RET cells (Homo sapiens, UniProt P07949); test: Inhibition of proliferation of Ba/F3 KIF5B-RET cells (CellTiter-Glo); format: cell-based; conditions: 72 to 144 hours
T1 construct: fused on or other part: P33176 (Kinesin-1 heavy chain)
T1 sequence (P07949 whole entry, change not shown, the tested form may be a part): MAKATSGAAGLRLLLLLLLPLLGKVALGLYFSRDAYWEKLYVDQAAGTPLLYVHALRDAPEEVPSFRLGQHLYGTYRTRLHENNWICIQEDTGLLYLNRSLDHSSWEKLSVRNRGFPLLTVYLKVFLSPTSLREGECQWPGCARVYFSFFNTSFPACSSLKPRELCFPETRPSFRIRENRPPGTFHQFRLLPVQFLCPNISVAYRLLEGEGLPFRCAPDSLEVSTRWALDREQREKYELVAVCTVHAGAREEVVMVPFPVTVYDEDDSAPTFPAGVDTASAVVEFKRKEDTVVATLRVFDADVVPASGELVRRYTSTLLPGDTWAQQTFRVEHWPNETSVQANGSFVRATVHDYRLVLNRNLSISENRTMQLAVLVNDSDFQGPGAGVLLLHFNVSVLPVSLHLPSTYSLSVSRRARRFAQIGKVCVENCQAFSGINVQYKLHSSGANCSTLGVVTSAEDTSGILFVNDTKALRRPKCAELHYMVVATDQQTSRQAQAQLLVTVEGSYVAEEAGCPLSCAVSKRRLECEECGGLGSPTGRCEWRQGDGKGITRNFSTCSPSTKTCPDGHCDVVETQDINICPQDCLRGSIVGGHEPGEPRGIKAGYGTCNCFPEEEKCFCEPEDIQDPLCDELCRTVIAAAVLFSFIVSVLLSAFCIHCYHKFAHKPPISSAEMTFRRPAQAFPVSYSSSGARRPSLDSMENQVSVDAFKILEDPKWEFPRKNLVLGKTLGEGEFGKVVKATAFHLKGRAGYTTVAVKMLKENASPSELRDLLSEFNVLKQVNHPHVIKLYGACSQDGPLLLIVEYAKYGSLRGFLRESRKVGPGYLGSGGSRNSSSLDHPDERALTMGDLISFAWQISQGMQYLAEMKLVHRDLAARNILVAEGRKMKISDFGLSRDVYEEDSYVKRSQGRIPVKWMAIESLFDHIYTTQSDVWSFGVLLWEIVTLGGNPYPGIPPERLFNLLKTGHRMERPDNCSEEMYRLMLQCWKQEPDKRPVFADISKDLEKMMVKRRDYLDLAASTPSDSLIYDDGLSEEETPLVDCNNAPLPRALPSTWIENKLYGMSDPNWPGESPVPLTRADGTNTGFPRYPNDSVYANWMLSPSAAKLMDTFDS
Procedure: When Ba/F3 KIF5B-RET cells were cultured to the appropriate cell density, cells were collected, and the cells were adjusted to the appropriate cell concentration using complete medium, and the cell suspension was spread in a 96-well plate, 90 μL per well, and placed in the wall of a 37° C., 5% CO2 incubator overnight; compound solutions of different concentrations were prepared using DMSO and culture medium; a solvent control was set, and the compound solution was added to a 96-well plate with […] at 37° C. in a 5% CO2 incubator for 72 to 144 hours, CellTiter-Glo solution was added thereto and mixed well by shaking, incubated for 10 minutes in the dark, and read by BioTek Synergy H1 microplate reader.
The IC50 values were obtained by using the luminescence signal values to calculate the inhibition rate, the concentrations and the inhibition rates were fitted to a nonlinear regression curve using Graphpad Prism software.

[2] = Balb/C mouse pharmacokinetics, oral 5 mg/kg; format: in vivo, Balb/C mice; conditions: male, p.o. 5 mg/kg, plasma
Procedure: The pharmacokinetic behavior of the following compound embodiments, administered orally at a dose of 5 mg/kg in plasma in mice, was studied using Balb/C mice as test animals.
Balb/C Mouse 6/embodiment, male, Shanghai Jiesijie Laboratory Animal Co., Ltd, Animal Production License No. (SCXK (Shanghai) 2013-0006 N0.311620400001794).
Balb/C mice, males; p.o. after overnight fasting, respectively, at a dose of 5 mg/kg, administered in a volume of 10 mL/kg.
0.5% CMC-Na (1% Tween80) was dissolved by ultrasound, and prepared into clear solution or uniform suspension.
Before and after administration, 0.1 mL of blood was collected from mice at 0, 0.5, 1, 2, 4, 6, 8 and 24 hours by orbital collection, placed in EDTA-K2 tubes, centrifuged at 6000 rpm at 4° C. for 6 minutes to separate plasma, and stored at −80° C.
2.5 Sample Handling: • 1) 40 μL of plasma sample was precipitated by adding 160 μL of acetonitrile, mixed and centrifuged at 3500×g for 5-20 minutes. • 2) 100 μL of the supernatant solution after treatment was taken to analyze the concentration of the test compound by LC/MS/MS.
2.6 Liquid Phase Analysis • Liquid phase conditions: Shimadzu LC-20AD pump • Mass spectrometry conditions: AB Sciex API 4000 mass spectrometer • Chromatographic column: phenomenex Gemiu 5 μM C18 50×4.6 mm • Mobile phase: Liquid A was 0.1% formic acid aqueous solution, liquid B was acetonitrile • Flow rate: 0.8 mL/min • Elution time: 0-4.0 minutes, the eluent was as follows:
The main pharmacokinetic parameters were calculated by WinNonlin 6.1 and the results of the mouse pharmacokinetic experiments were shown in Table 13 below.

SMILES | pIC50 [1] | pIC50 (Ba/F3 KIF5B-RET cells) | also measured
COc1ncc(CN2C3CC2CN(c2ccc(-c4cc(N5CC(C)(C#N)C5)cn5ncc(C#N)c45)cn2)C3)cc1F [Embodiment 76, 6-(3-Cyano-3-methylazetidin-1-yl)-4-(6-(6-((5-fluoro-6-methoxypyridin-3-yl)methyl)-3,6-diazabicyclo[3.1.1]heptan-3-yl)pyridin-3-yl)pyrazolo[1,5-a]pyridine-3-carbonitrile] | 8.46 | 8.22 | –
[2H]C([2H])([2H])Oc1ccc(CN2C3CC2CN(c2ccc(-c4cc(C#CC(C)(C)O)cn5ncc(C#N)c45)cn2)C3)cn1 [Embodiment 25, 6-(3-Hydroxy-3-methylbut-1-yn-1-yl)-4-(6-(6-((6-(methoxy-d3)pyridin-3-yl)methyl)-3,6-diazabicyclo[3.1.1]heptan-3-yl)pyridin-3-yl)pyrazolo[1,5-a]pyridine-3-carbonitrile] | 7.82 | 7.87 | –
COc1ccc(CN2C3CC2CN(c2ccc(-c4cc(C#CC5(O)CCOCC5)cn5ncc(C#N)c45)cn2)C3)cn1 [Embodiment 78, 6-((4-Hydroxytetrahydro-2H-pyran-4-yl)ethynyl)-4-(6-(6-((6-methoxypyridin-3-yl)methyl)-3,6-diazabicyclo[3.1.1]heptan-3-yl)pyridin-3-yl)pyrazolo[1,5-a]pyridine-3-carbonitrile] | 7.86 | 7.81 | –
COc1ncc(CN2C3CC2CN(c2ccc(-c4cc(N5CC(C)(O)C5)cn5ncc(C#N)c45)cn2)C3)cc1F [Embodiment 73, 4-(6-(6-((5-Fluoro-6-methoxypyridin-3-yl)methyl)-3,6-diazabicyclo[3.1.1]heptan-3-yl)pyridin-3-yl)-6-(3-hydroxy-3-methylazetidin-1-yl)pyrazolo[1,5-a]pyridine-3-carbonitrile] | 8.23 | 7.92 | –
COc1ncc(CN2C3CC2CN(c2ccc(-c4cc(C#CC5(O)CCOCC5)cn5ncc(C#N)c45)cn2)C3)cc1F [Embodiment 79, 4-(6-(6-((5-Fluoro-6-methoxypyridin-3-yl)methyl)-3,6-diazabicyclo[3.1.1]heptan-3-yl)pyridin-3-yl)-6-((4-hydroxytetrahydro-2H-pyran-4-yl)ethynyl)pyrazolo[1,5-a]pyridine-3-carbonitrile] | 7.98 | 7.86 | –
Cc1ccc(F)cc1C(=O)NC1(C)CCN(c2ccc(-c3cc(C#CC(C)(C)N)cn4ncc(C#N)c34)cn2)CC1 [Embodiment 87, N-(1-(5-(6-(3-amino-3-methylbut-1-yn-1-yl)-3-cyanopyrazolo[1,5-a]pyridin-4-yl)pyridin-2-yl)-4-methylpiperidin-4-yl)-5-fluoro-2-methylbenzamide] | 7.63 | 7.73 | –
COc1ccc(CN2C3CC2CN(c2ccc(-c4cc(C#CC5(O)CCC5)cn5ncc(C#N)c45)cn2)C3)cn1 [Embodiment 82, 6-((1-Hydroxycyclobutyl)ethynyl)-4-(6-(6-((6-methoxypyridin-3-yl)methyl)-3,6-diazabicyclo[3.1.1]heptan-3-yl)pyridin-3-yl)pyrazolo[1,5-a]pyridine-3-carbonitrile] | 7.75 | 7.66 | –
CC(C)(N)C#Cc1cc(-c2ccc(N3CCC(C)(NC(=O)c4ncccc4Cl)CC3)nc2)c2c(C#N)cnn2c1 [Embodiment 86, N-(1-(5-(6-(3-Amino-3-methylbut-1-yn-1-yl)-3-cyanopyrazolo[1,5-a]pyridin-4-yl)pyridin-2-yl)-4-methylpiperidin-4-yl)-3-chloropicolinamide] | 7.84 | 7.81 | –
COc1ccc(CN2C3CC2CN(c2ccc(-c4cc(OC[C@H]5C[C@@](C)(O)C5)cn5ncc(C#N)c45)cn2)C3)cn1 [Embodiment 44, 6-((Cis-3-hydroxy-3-methylcyclobutyl)methoxy)-4-(6-(6-((6-methoxypyridin-3-yl)methyl)-3,6-diazabicyclo[3.1.1]heptan-3-yl)pyridin-3-yl)pyrazolo[1,5-a]pyridine-3-carbonitrile] | 7.91 | 7.82 | MRT ([2]; read-out: Average residence time MRT): 5.22 h; Cmax ([2]; read-out: Blood concentration Cmax): 1620 ng/mL; AUC(0-t) ([2]; read-out: Curve area AUC0-t): 14000 ng·h/mL; AUC(0-inf) ([2]; read-out: Curve area AUC0-∞): 14000 ng·h/mL; half-life ([2]; read-out: Half-life t1/2 (converted)): 3.45 h; Tmax ([2]; read-out: Peak time tmax): 0.5 h
COc1ccc(CN2C3CC2CN(c2ccc(-c4cc(C#CC5(O)COC5)cn5ncc(C#N)c45)cn2)C3)cn1 [Embodiment 80, 6-((3-Hydroxyoxetan-3-yl)ethynyl)-4-(6-(6-((6-methoxypyridin-3-yl)methyl)-3,6-diazabicyclo[3.1.1]heptan-3-yl)pyridin-3-yl)pyrazolo[1,5-a]pyridine-3-carbonitrile] | 7.76 | 7.62 | –
COc1ncc(CN2C3CC2CN(c2ccc(-c4cc(C#CC5(O)COC5)cn5ncc(C#N)c45)cn2)C3)cc1F [Embodiment 81, 4-(6-(6-((5-Fluoro-6-methoxypyridin-3-yl)methyl)-3,6-diazabicyclo[3.1.1]heptan-3-yl)pyridin-3-yl)-6-((3-hydroxyoxetan-3-yl)ethynyl)pyrazolo[1,5-a]pyridine-3-carbonitrile] | 7.86 | 7.77 | –
COc1ccc(CN2C3CC2CN(c2ccc(-c4cc(OCC56CC(CO)(C5)C6)cn5ncc(C#N)c45)cn2)C3)cn1 [Embodiment 45, 6-((3-(Hydroxymethyl)bicyclo[1.1.1]pentan-1-yl)methoxy)-4-(6-(6-((6-methoxypyridin-3-yl)methyl)-3,6-diazabicyclo[3.1.1]heptan-3-yl)pyridin-3-yl)pyrazolo[1,5-a]pyridine-3-carbonitrile] | 8.04 | 8.15 | –
COCC(C)(O)C#Cc1cc(-c2ccc(N3CC4CC(C3)N4Cc3ccc(OC)nc3)nc2)c2c(C#N)cnn2c1 (stereo not shown) [Embodiment 75, 6-(3-Hydroxy-4-methoxy-3-methylbut-1-yn-1-yl)-4-(6-(6-((6-methoxypyridin-3-yl)methyl)-3,6-diazabicyclo[3.1.1]heptan-3-yl)pyridin-3-yl)pyrazolo[1,5-a]pyridine-3-carbonitrile] | 7.61 | 7.46 | –
COc1ncc(CN2C3CC2CN(c2ccc(-c4cc(OCC56CC(CO)(C5)C6)cn5ncc(C#N)c45)cn2)C3)cc1F [Embodiment 71, 4-(6-(6-((5-Fluoro-6-methoxypyridin-3-yl)methyl)-3,6-diazabicyclo[3.1.1]heptan-3-yl)pyridin-3-yl)-6-((3-(hydroxymethyl)bicyclo[1.1.1]pentan-1-yl)methoxy)pyrazolo[1,5-a]pyridine-3-carbonitrile] | 8.06 | 8.25 | –
